Literature values as cited in patent US20170335399A1, “DETECTION OF MINERALOCORTICOID RECEPTOR ACTIVATION AND PERSONALIZED ANTIHYPERTENSIVE THERAPY BASED THEREON” (The Regents of University of Michigan, priority 2014, published 2017).

What was measured:
[1] = target: T1, mineralocorticoid receptor (MR) (Homo sapiens, UniProt P08235); conditions: resistant hypertension patients; ASPIRANT trial; placebo-corrected mean
T1 construct: host or cells: patients with resistant hypertension (in vivo)
T1 sequence (P08235 1-984): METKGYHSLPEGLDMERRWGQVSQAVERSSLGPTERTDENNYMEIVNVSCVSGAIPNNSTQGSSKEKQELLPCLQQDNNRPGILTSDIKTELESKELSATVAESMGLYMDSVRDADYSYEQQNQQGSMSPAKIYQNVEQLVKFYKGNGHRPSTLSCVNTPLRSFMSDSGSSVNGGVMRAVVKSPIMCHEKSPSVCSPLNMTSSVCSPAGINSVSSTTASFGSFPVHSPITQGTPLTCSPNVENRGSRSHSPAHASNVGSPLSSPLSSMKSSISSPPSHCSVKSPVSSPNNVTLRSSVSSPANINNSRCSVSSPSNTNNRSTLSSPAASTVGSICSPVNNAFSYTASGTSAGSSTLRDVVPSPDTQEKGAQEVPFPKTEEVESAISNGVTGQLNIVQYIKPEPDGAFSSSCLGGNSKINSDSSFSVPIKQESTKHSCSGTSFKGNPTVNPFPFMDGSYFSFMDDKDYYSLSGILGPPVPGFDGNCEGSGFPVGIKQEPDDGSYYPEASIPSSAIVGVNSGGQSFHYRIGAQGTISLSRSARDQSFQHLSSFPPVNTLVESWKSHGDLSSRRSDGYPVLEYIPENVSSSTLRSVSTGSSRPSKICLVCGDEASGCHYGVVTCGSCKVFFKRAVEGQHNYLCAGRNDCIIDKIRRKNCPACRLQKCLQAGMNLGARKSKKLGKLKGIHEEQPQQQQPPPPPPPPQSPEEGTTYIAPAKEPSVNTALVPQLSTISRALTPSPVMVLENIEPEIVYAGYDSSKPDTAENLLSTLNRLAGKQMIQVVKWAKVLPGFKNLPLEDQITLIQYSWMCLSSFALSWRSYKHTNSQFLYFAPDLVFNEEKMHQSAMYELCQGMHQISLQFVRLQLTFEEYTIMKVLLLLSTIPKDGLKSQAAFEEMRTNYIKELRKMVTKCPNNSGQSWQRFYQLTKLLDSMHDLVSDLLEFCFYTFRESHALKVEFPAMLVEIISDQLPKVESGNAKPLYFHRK

[2] = target: T1, mineralocorticoid receptor (MR); conditions: resistant hypertension; after addition of spironolactone; other studies
[3] = test system: ENaC; conditions: patients treated with spironolactone

SMILES: CC(=O)S[C@@H]1CC2=CC(=O)CC[C@]2(C)[C@H]2CC[C@@]3(C)[C@@H](CC[C@@]34CCC(=O)O4)[C@H]12 [spironolactone]
- mean reduction of 24-hour systolic blood pressure more than placebo [1]: 9.8 mm Hg
- mean reductions in systolic blood pressure [2]: 16-26 mm Hg
- ENaC expression on peripheral blood mononuclear cells [3]: decreased
